Columns and labels:
GII.27 P domain = biological target: T1, GII.27 P domain (Norovirus GII, UniProt A0A2H4Y8Z8); assay: X-ray co-crystal structure, […] A; assay type: binding; conditions: co-crystallized with 30-60 molar excess; one molecule per dimer, site at dimer interface: N354, R355, D384 of one monomer, K444, G446, Y447 of the other
T1 construct: protruding (P) domain of the capsid protein, dimer

GX P domain (NPIH26) = biological target: T2, GX P domain (NPIH26) (Bat norovirus, UniProt A0A2S1TZT6); assay: X-ray co-crystal structure, […] A; assay type: binding; conditions: co-crystallized with 30-60 molar excess; two fucose molecules per P domain dimer; site E332, H334, E349, T433 of one monomer; pH 6.5
T2 construct: gene ORF2; protruding (P) domain of the capsid protein, dimer

Row | SMILES | X-ray co-crystal structure, 1.76 A (GII.27 P domain) | X-ray co-crystal structure, 1.55 A (GX P domain (NPIH26))
1 | CC(=O)N[C@H]1[C@@H](O[C@H]2[C@@H](O)[C@@H](CO)OC(O)[C@@H]2O[C@@H]2O[C@@H](C)[C@@H](O)[C@@H](O)[C@@H]2O)O[C@H](CO)[C@H](O)[C@@H]1O (stereo partly drawn) [A-trisaccharide, α-L-fucose-(1-2)-α-D-galactose-(3-1)-2-N-acetyl-α-D-galactosamine] | a single A-trisaccharide molecule bound to the P domain dimer | –
2 | C[C@@H]1OC(O)[C@@H](O)[C@H](O)[C@@H]1O (some centres unmarked) [FUC, fucose] | – | The GX P domain held the fucose molecules with six direct hydrogen bonds

From PMC12456010, “Structural constraints prevent a bat norovirus from binding to histo-blood group antigen co-factors” (Journal of Virology, 2025)
